The text below walks through data of patent US8168645B2, “Arylsulfonamide compounds” (Genentech, Inc., priority 2006, dated 2012).

In one test the target is GST tagged Mcl-1 protein (Homo sapiens, UniProt Q07820). Put plainly: Alphascreen competition binding assay, GST tagged Mcl-1 vs biotinylated Bak BH3 peptide. The conditions noted are these: competition with Bak BH3 peptide; unit inferred. From the text:
(§1) Measurement of competition of compounds of the invention with Bim26-mer for a Bcl-2 homologue binding site.
(§2) Alphascreen (Amplified Luminescent Proximity Homogenous Assay) is a bead based technology which measures the interaction between molecules. The assay consists of two hydrogel coated beads which, when bought into close proximity by a binding interaction, allow the transfer of singlet oxygen from a donor bead to an acceptor bead.
(§3) Upon binding and excitation with laser light at 680 nm, a photosensitizer in the donor bead converts ambient oxygen to a more excited singlet state. This singlet oxygen then diffuses across to react with a chemiluminescer in the acceptor bead. Fluorophores within the same bead are activated resulting in the emission of light at 580-620 nm.
(§4) Screening of the compounds of the invention was performed using the Alphascreen GST (glutathione s-transferase) detection kit system. Test compounds were titrated into the assay which consisted of GST tagged Bclw ΔC29 protein (0.05 nM Final concentration) and Biotinylated Bim BH3-26 peptide, Biotin-[…] (3.0 nM Final concentration). For the GST tagged BCl-xL assay, GST tagged BCl-xL ΔC25 protein (0.6 nM Final concentration) and Biotinylated Bim BH3-26 peptide, Biotin-[…] (5.0 nM final concentration) were used. To this reaction mix anti-GST coated acceptor beads and Streptavidin coated donor beads, both at 15 μg/ml Final concentration, were added and the assay mixture incubated for 4 hours at room temperature before reading. Similarly when the Bcl-2 protein was Mcl-1, GST tagged Mcl-1 protein (0.4 nM Final concentration) and Biotinylated Bak BH3 peptide, Biotin-[…]-OH (4.0 nM Final concentration) were used.
(§5) • 1) prepare a 384 well with 4.75 μL of buffer and 0.25 μL of compounds (20 mM in DMSO) per well. • 2) Mix the binding partners, in one tube add Bcl-w, BCl-xL or Mcl-1 and the acceptor beads, in the second tube add Biotinylated BH3 peptide and the donor beads. • 3) Pre-incubate the two pairs of binding partners for 30 minutes. • 4) Add 1 μL of acceptor beads:Bcl-w, BCl-xL or Mcl-1 protein mix to each well. • 5) Seal the plate and incubate at room temperature for 30 minutes. • 6) Add 10 μL of donor bead:BH3 peptide mix to each well. • 7) Seal the plate, cover with foil and incubate for 4 hours.
(§6) Assay buffer contained 50 mM Hepes pH 7.4, 10 mM DTT, 100 mM NaCl, 0.05% Tween and 0.1 mg/ml casein. Bead dilution buffer contained 50 mM Tris, pH 7.5, 0.01% Tween and 0.1 mg/ml casein. The final DMSO concentration in the assay was 0.5%. Assays were performed in 384 well white Optiplates and analyzed on the PerkinElmer Fusion alpha plate reader (Ex680, Em520-620 nM).
(§7) The GST Alphascreen detection kit and Optiplates were purchased from PerkinElmer.
In general terms: Alpha assays give light when donor and acceptor beads are brought close together.

Test [1] concerns the target GST tagged BCl-xL ΔC25 protein (Homo sapiens, UniProt Q07817). Put plainly: Alphascreen competition binding assay, GST tagged Bcl-xL vs biotinylated Bim BH3-26 peptide. The conditions noted are these: competition with Bim BH3-26 peptide; unit inferred.
From the text: as §1, §2, §3, §4, §5, §6, §7

A further test concerns SCLC cell line NCI-H146. Put plainly: CellTitre-Glow luminescent cytotoxicity assay, NCI-H146. It counts as cell-based. The conditions noted are these: Homo sapiens; NCI-H146 cells, 48 hr incubation. The method, then: (§8) • 1. SCLC cell lines NCI-H889, NCI-H1963, and NCI-H146 were purchased from American Type Culture Collection. Cells were maintained in RPMI 1640 (Invitrogen Corp., Grand Island, N.Y.) supplemented with 10% fetal bovine serum (FBS, Invitrogen), 1% sodium pyruvate, 25 mM HEPES, 4.5 g/L glucose and 1% penicillin/streptomycin (Sigma) in a humidified chamber at 37° C. containing 5% CO2. • 2. cells were grown as suspension aggregates in a T162 flask with 25 ml medium and kept at concentration of 1 million/mL. Test Compound Stocks: • 1. test compounds were prepared as 10 mM stocks in DMSO and stored at −20° C. Test Compound Serial Dilutions: • 1. prewarmed medium to 37° C. • 2. thawed compounds to room temperature. • 3. determined what will be the highest concentration to be tested. (i.e. 10 μM). • 4. prepared a 2× stock in culture medium of the first dose (i.e. 2×10 μM=20 μM) in an Eppendorf tube (i.e. 4 μl of 5 mM stock into 1000 μl=20 μM). • 5. inverted tube several times to mix. […] Columns 1-10 comprised the serial test compound treatments, column 11 was the untreated control and column 12 was the ‘no cell’ control for determining the background. • 1. in a 96 well plate was added 50 μl medium/well in columns 2 thru 11 and 100 μl was added to column 12. • 2. in column 1 was added 100 μl of 2× compound. • 3. made serial dilutions by transferring 50 μl to column 2, and so on up to column 10. After adding 50 μl to column 10 and mixing, discarded 50 μl. • 4. stored plates at 37° C. until ready to add cells. Cell Preparation • 1. Cell were washed one time in the culture medium and prepared as a suspension. • a. cell were first spun down to remove the medium and then ˜1 ml 0.25% trypsin was added and gently mixed and incubated for no more than three minutes at room temperature. • b. ˜10 ml of the medium was added and the cells were gently pipetted several times. • c. cells were then counted and spun down to the volume necessary for the total cell number needed, then resuspended in the medium to 200 cells/μl concentration (50,000 cells/well). • 2. […]

In another test the test system is SCLC cell line NCI-H1963. Put plainly: CellTitre-Glow luminescent cytotoxicity assay, NCI-H1963. The format is cell-based. The conditions noted are these: Homo sapiens; NCI-H1963 cells, 48 hr incubation. The procedure:
as §8

Another test relates to SCLC cell line NCI-H889. Put plainly: CellTitre-Glow luminescent cytotoxicity assay, NCI-H889. It counts as cell-based. The conditions noted are these: Homo sapiens; NCI-H889 cells, 48 hr incubation. The procedure: as §8
The test system of test [2] is mouse embryo fibroblasts (MEFs): wild type, Bax/Bak double knockout, Noxa-expressing, Bad-expressing. Put plainly: Cell viability assay on mouse embryo fibroblasts (propidium iodide uptake). The note with it: propidium iodide uptake after 24 hours. It counts as cell-based. The procedure:
FIG. 1 graphically depicts the effect of Compound 1 (FIG. 1A) and Etoposide (FIG. 1B), at increasing concentrations, on the % viability of certain mouse embryo fibroblast (MEF) cells as assessed by propidium iodide uptake after 24 hours. Noxa and Bad were introduced by retrovirally infecting the cells with pMIG retroviruses as described by Chen et al., 2005.
The efficacy of the compounds of the present invention can also be determined in cell based killing assays using a variety of cell lines and mouse tumor models. For example, their activity on cell viability can be assessed on a panel of cultured tumorigenic and non-tumorigenic cell lines, as well as primary mouse or human cell populations, e.g. lymphocytes. For these assays, 5,000-20,000 cells are cultured at 37° C. and 10% CO2 in appropriate growth media, eg: 100 μL Dulbecco's Modified Eagle's medium supplemented with 10% foetal calf serum, asparaginase and 2-mercaptoethanol in the case of pre-B Eμ-Myc mouse tumors in 96 well plates. […] Cell viability is determined by the ability of the cells to exclude propidium iodide (10 μg/mL by immunofluorescence analysis of emission wavelengths of 660-675 nm on a flow cytometer (BD FACScan). Alternatively, a high throughput calorimetric assay such as the Cell Titre 96 could be used. Aqueous Non-Radioactive Cell Proliferation Assay (Promega) may be used. Cell death by apoptosis is confirmed by pre-incubation of the cells with 50 μM of a caspase inhibitor such as zVAD-fmk.
Neutralisation of both Bcl-xL and Mcl-1 anti-apoptotic proteins in normal cells is required before a cell undergoes apoptosis via the downstream Bax/Bak pathway [Chen et al., 2005; Willis et al., 2005]. A compound that only targets Bcl-xL should not affect normal cells, but could kill certain cancer cells if they rely more on Bcl-xL and less on Mcl-1 for survival. To mirror this, compound 1 was tested for its effect on survival of wild type (wt) mouse embryo fibroblasts (MEFs), Bax/Bak double knockout (BB DKO) MEFs, MEFs that expressed Noxa, and MEFs that expressed Bad. Noxa specifically neutralizes Mcl-1.

GST tagged BCl-xL ΔC25 protein, sequence (Q07817 1-208 limits assumed): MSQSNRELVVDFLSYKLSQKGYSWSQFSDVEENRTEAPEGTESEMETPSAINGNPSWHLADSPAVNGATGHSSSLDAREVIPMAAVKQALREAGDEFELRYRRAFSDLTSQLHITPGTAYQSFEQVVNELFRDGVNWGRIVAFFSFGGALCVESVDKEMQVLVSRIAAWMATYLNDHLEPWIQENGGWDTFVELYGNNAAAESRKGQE
GST tagged Mcl-1 protein, sequence (Q07820 whole entry): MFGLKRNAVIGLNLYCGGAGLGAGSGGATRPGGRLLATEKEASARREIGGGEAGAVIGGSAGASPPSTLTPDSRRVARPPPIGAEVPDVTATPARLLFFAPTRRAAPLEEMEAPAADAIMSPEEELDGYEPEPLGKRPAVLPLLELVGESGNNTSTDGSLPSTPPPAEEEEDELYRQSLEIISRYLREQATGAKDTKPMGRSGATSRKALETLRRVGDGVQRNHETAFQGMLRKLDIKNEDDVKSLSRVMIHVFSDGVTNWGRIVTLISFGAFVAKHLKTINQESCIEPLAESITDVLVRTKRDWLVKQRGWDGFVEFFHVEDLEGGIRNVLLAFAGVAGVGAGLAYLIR

As usually defined, the IC50 is the concentration needed to halve the response being measured. As for `CN(C)CC[C@H](CSc1ccccc1)Nc1ccc(S(=O)(=O)Nc2ncnc3cc(N4CCN(Cc5ccccc5-c5ccc(Cl)cc5)CC4)ccc23)cc1S(=O)(=O)C(F)(F)F` [Compound 2, N-{7-[4-(4′-Chloro-biphenyl-2-ylmethyl)-piperazin-1-yl]-quinazolin-4-yl}-4-((R)-3-dimethylamino-1-phenylsulfanylmethyl-propylamino)-3-trifluoromethanesulfonyl-benzenesulfonamide], the IC50 on GST tagged Mcl-1 protein worked out at 50000 nM; in test [1], 6 nM.

Broadly, the EC50 is the concentration needed to bring the measured effect to its halfway point. Lower therefore signals a more potent agent. For the compound `O=[N+]([O-])c1cc(S(=O)(=O)Nc2ncnc3cc(N4CCN(Cc5ccccc5-c5ccc(Cl)cc5)CC4)ccc23)ccc1N[C@H](CCN1CCOCC1)CSc1ccccc1` [Compound 3, N-{7-[4-(4′-Chloro-biphenyl-2-ylmethyl)-piperazin-1-yl]-quinazolin-4-yl}-4-((R)-3-morpholin-4-yl-1-phenylsulfanylmethyl-propylamino)-3-nitro-benzenesulfonamide], the EC50 with SCLC cell line NCI-H146 stood at 3.7 µM; in the test with SCLC cell line NCI-H1963 it was 1.4 µM; in the test on SCLC cell line NCI-H889, 1.3 µM. For the same compound, the IC50 on GST tagged Mcl-1 protein worked out at 6000 nM; in test [1], 34 nM.

Regarding `O=S(=O)(Nc1ncnc2cc(N3CCN(Cc4ccccc4-c4ccc(Cl)cc4)CC3)ccc12)c1ccc(N[C@H](CCN2CCOCC2)CSc2ccccc2)c(S(=O)(=O)C(F)(F)F)c1` [Compound 4, N-{7-[4-(4′-Chloro-biphenyl-2-ylmethyl)-piperazin-1-yl]-quinazolin-4-yl}-4-((R)-3-morpholin-4-yl-1-phenylsulfanylmethyl-propylamino)-3-trifluoromethanesulfonyl-benzenesulfonamide], the figures for the EC50 with SCLC cell line NCI-H146, in the test with SCLC cell line NCI-H1963 and with SCLC cell line NCI-H889 were 0.63 µM, 0.4 µM and 0.82 µM, respectively. This compound came in with an IC50 in test [1] of 16 nM.

For the compound `CN(C)CC[C@H](CSc1ccccc1)Nc1ccc(S(=O)(=O)Nc2ncnc3cc(N4CCN(CC5=C(c6ccc(Cl)cc6)CCC(C)(C)C5)CC4)ccc23)cc1[N+](=O)[O-]` [Compound 5, N-(7-{4-[2-(4-Chloro-phenyl)-5,5-dimethyl-cyclohex-1-enylmethyl]-piperazin-1-yl}-quinazolin-4-yl)-4-((R)-3-dimethylamino-1-phenylsulfanylmethyl-propylamino)-3-nitro-benzenesulfonamide], the IC50 at GST tagged Mcl-1 protein is 7000 nM; in test [1], 3 nM.

With `CN(C)CC[C@H](CSc1ccccc1)Nc1ccc(S(=O)(=O)Nc2ncnc3cc(N4CCN(CC5=C(c6ccc(Cl)cc6)CCC(C)(C)C5)CC4)ccc23)cc1S(=O)(=O)C(F)(F)F` [Compound 6, N-(7-{4-[2-(4-Chloro-phenyl)-5,5-dimethyl-cyclohex-1-enylmethyl]-piperazin-1-yl}-quinazolin-4-yl)-4-((R)-3-dimethylamino-1-phenylsulfanylmethyl-propylamino)-3-trifluoromethanesulfonyl-benzenesulfonamide], the IC50 on GST tagged Mcl-1 protein came to 20000 nM; in test [1] it was 3 nM.

With `CC1(C)CCC(c2ccc(Cl)cc2)=C(CN2CCN(c3ccc4c(NS(=O)(=O)c5ccc(N[C@H](CCN6CCOCC6)CSc6ccccc6)c([N+](=O)[O-])c5)ncnc4c3)CC2)C1` [Compound 7, N-(7-{4-[2-(4-Chloro-phenyl)-5,5-dimethyl-cyclohex-1-enylmethyl]-piperazin-1-yl}-quinazolin-4-yl)-4-((R)-3-morpholin-4-yl-1-phenylsulfanylmethyl-propylamino)-3-nitro-benzenesulfonamide], the half-inhibitory concentration (IC50) at GST tagged Mcl-1 protein was found to be 10000 nM; in test [1], 20 nM.

`CC1(C)CCC(c2ccc(Cl)cc2)=C(CN2CCN(c3ccc4c(NS(=O)(=O)c5ccc(N[C@H](CCN6CCOCC6)CSc6ccccc6)c(S(=O)(=O)C(F)(F)F)c5)ncnc4c3)CC2)C1` [Compound 8, N-(7-{4-[2-(4-Chloro-phenyl)-5,5-dimethyl-cyclohex-1-enylmethyl]-piperazin-1-yl}-quinazolin-4-yl)-4-((R)-3-morpholin-4-yl-1-phenylsulfanylmethylpropylamino)-3-trifluoromethanesulfonyl benzenesulfonamide]: the IC50 on GST tagged Mcl-1 protein was found to be 10000 nM; in test [1], 29 nM.

Take `COc1cc([C@@H]2c3cc4c(cc3[C@@H](O[C@@H]3O[C@@H]5CO[C@@H](C)O[C@H]5[C@H](O)[C@H]3O)[C@H]3COC(=O)[C@H]23)OCO4)cc(OC)c1O` [etoposide]: the “Selectivity of killing of Noxa-expressing MEFs versus MEFs where both Bcl-xL and Mcl-1 are protective (% viability)” value in test [2] (FIG. 1A/1B) was “less selectively than compound 1”. Also, the “Effect on Bax/Bak double knockout (BB DKO) MEFs” value in test [2] (FIG. 1B) is “resistance of BB DKO MEFs”.
